From patent US20210301038A1, “POLYSIALIC ACID AND DERIVATIVES THEREOF, PHARMACEUTICAL COMPOSITION AND METHOD OF PRODUCING POLYSIALIC ACID” (Medizinische Hochschule Hannover (MHH), priority 2018, published 2021)

Tests used:
[1] = system: NMDAR-EPSCs (GluN1/GluN2B receptors); assay: Evoked NMDAR-EPSCs, whole-cell patch-clamp of layer V pyramidal neurons in sham- or endoNF-treated mPFC slices; assay type: cell-based, mouse; details: for inhibition of NMDAR-EPSC amplitude: sham-treated mPFC slices, DP12 1 μg/ml, then subsequently applied 0.3 μM Ro 25-6981
Description: Each mouse was quickly sacrificed by cervical dislocation. After decapitation, the brain was rapidly removed from the skull and placed in ice-cold artificial cerebrospinal fluid (aCSF) equilibrated with 95% O2/5% CO2, which was composed of the following (in mM): 250 sucrose, 24 NaHCO3, 25 glucose, 2.5 KCl, 1.25 NaH2PO4, 2 CaCl2, and 1.5 MgCl2 (osmolarity 345-350 mOsm/kg, pH 7.4). Using a VT1200S vibratome (Leica, Nussloch, Germany), coronal slices containing the prelimbic and infralimbic cortices (1.9-1.3 mm anterior to bregma) were cut 350 μm or 400 μm thick, for patch clamp and extracellular recordings, respectively, in the same sucrose-containing aCSF. Then, the slices were transferred to a slice holding chamber filled with recording aCSF (osmolarity 300-305 mOsm/kg, pH 7.4) that contained 120 mM NaCl instead of sucrose (Eckhardt et al., 2000) and was continuously gassed with 95% O2/5% CO2.
(§1) For endoNF treatment in C57BL/6J mice, slices were first allowed to recover for 20 min at room temperature (22-24° C.) in recording aCSF and were then placed in a 24-well plate to be incubated in 2 ml of aCSF without (sham) or with addition of endoNF (10 μg/ml) at 35° C. for 2 hours. The 24-well plate was installed in a water bath (ED, Julabo, Seelbach, Germany). For field excitatory postsynaptic potential (fEPSP) recordings in knockout and transgenic mice, mPFC slices were incubated in recording aCSF for >2 hours at room temperature before recordings. For patch-clamp recordings in knockout mice, slices were incubated first at 35° C. for 20 min and then at room temperature for >30 min before recordings started. The aCSF was continuously gassed with 95% O2/5% CO2 during all incubation steps and recordings.
For whole-cell patch-clamp recordings, layer V pyramidal neurons were visualized using a SliceScope Pro 6000 equipped with a 40× water-immersion objective and infrared differential interference contrast microscopy (Scientifica, Uckfield, UK). Pyramidal cells were identified by their triangular soma and long apical dendrites, and synaptically evoked excitatory postsynaptic currents (EPSCs) were recorded using patch pipettes (3-5 MQ) fabricated using borosilicate glass capillaries (wall thickness 0.315, length 100, outer diameter 1.5 mm, Hilgenberg) and a DMZ-Zeitz puller (Zeitz Instruments GmbH, Martinsried, Germany). The intracellular pipette solution contained the following (in mM): 140.7 Cs-methane-sulfonate, 5 NaCl, 1 MgCl2, 0.2 EGTA, 10 HEPES, 3 ATP-Mg, 0.3 Na-GTP, and 3.1 QX-314 (osmolarity 295 mOsm/kg, adjusted to pH 7.2 with CsOH). EPSCs were evoked by electrical pulses (0.2 ms) at 0.033 Hz via a glass pipette placed in layer II/III of the mPFC (identically to fEPSPs). Mixed EPSCs showing a fast AMPAR-mediated component and a slow NMDAR-mediated component were recorded at a −60 mV holding potential in whole-cell voltage-clamp mode in normal aCSF. The stimulation intensity was adjusted to evoke mixed EPSCs with amplitudes of approximately 300 pA. The slow NMDAR-mediated component of EPSCs was pharmacologically isolated at −60 mV in modified aCSF containing low Mg^2+ (0.1 mM) and high Ca^2+ (3.2 mM, for adjustment of divalent cation concentrations), the selective antagonist of α-amino-3-hydroxy-5-methyl-4-isoxazolepropionic acid (AMPA)/kainate receptors NBQX (10 μM), and the selective antagonist of γ-aminobutyric acid (GABA)B receptors CGP-55845 (2 μM) (Chen et al., 2003). The washout of Mg^2+ required at least 25 min. Recordings at a holding potential near the resting membrane potential allowed us to obtain stable NMDAR-EPSC recordings from pyramidal cells lasting for 1-1.5 hours. Series resistance (Rs, range 10-25 MΩ) was compensated (20-30%) and monitored continuously. Neurons in which Rs changed by more than 20% throughout the experiment were not included in the analysis. In voltage-clamp mode, membrane potential was not corrected for liquid junction potential. […]

[2] = system: mPFC slices from St8sia4−/− mice; assay: TBS-induced LTP in mPFC slices from ST8SIA4-deficient mice and wild-type littermates; assay type: cell-based, mouse; details: Ro 25-6981 0.3 μM, DP12 1 μg/ml, sarcosine 0.75 mM; for LTP magnitude: St8sia4+/+ mice; for LTP level 50-60 min after TBS: St8sia4−/− mice
Protocol: as §1
Prefrontal slices (400 μm) were transferred to a submerged-type recording MC membrane chamber (volume 2 ml; Scientific Systems Design Inc., Mississauga, Ontario, Canada) perfused with oxygenated recording ACSF at a flow rate of 4 ml/min and maintained at room temperature (22-25° C.), unless stated otherwise in the “Results”-section given below. Field EPSPs were evoked and recorded using thin-walled glass electrodes (borosilicate glass, wall thickness 0.188, length 100, and outer diameter 1.5 mm, Hilgenberg, Malsfeld, Germany) filled with recording aCSF in 400 μm-thick mPFC slices. In order to stimulate electrically the input fibers of pyramidal cells, the stimulation electrode (0.3-0.5 MΩ) was inserted into layers II/III of the prelimbic cortex. The recording electrode (2-2.5 MΩ) was placed in the vicinity of dendrites and cell bodies of pyramidal neurons in layer V (Huang et al., 2004).
Before LTP induction, basal synaptic transmission was recorded in each slice and the relationship between stimulus intensity and fEPSP slope was measured. Basal fEPSPs were evoked at 0.05 Hz for at least 10 min. The supramaximal slope was determined by gradually increasing the stimulation intensity until a population spike in the fEPSP became first visible. The stimulation intensity was adjusted to elicit a basal fEPSP with a slope of approximately 50% of the supramaximal value.
LTP was induced by application of five trains of theta-burst stimulation (TBS) with an inter-theta-train interval of 20 s (Brennaman et al., 2011). Each train consisted of 8 bursts delivered at 5 Hz. Each burst consisted of four pulses delivered at 100 Hz. Duration of pulses was 0.2 ms. For calculation of the LTP level, the mean fEPSP slope was measured between 50-60 min after TBS delivery, and it was then normalized to mean baseline fEPSP slope during 0-10 min before TBS. Stimulus artifacts in representative fEPSP examples in figures were blanked to facilitate the perception of fEPSPs recorded in the mPFC. Recording and analysis of LTP in St8Sia4^−/− mice was performed in a blind manner.

| Compound | reduction of EPSC amplitude on subsequent application after DP1 ([1]; endoNF-treated slices, 0.3 μM) [%] | reduction of NMDAR-EPSC amplitude on subsequent application after DP12 ([1]; endoNF-treated slices, 0.3 μM Ro 25-6981 after DP12) | inhibition of NMDAR-EPSC amplitude [1] | LTP magnitude [2] | LTP level 50-60 min after TBS [2] | decrease of NMDAR-EPSC amplitude ([1]; endoNF-treated slices, 1 μg/ml) [%] | inhibition as % of the mean inhibition produced by Ro 25-6981 applied alone ([1]; endoNF-treated slices, same time window, estimated) [%] |
| --- | --- | --- | --- | --- | --- | --- | --- |
| C[C@@H](CN1CCC(Cc2ccccc2)CC1)[C@@H](O)c1ccc(O)cc1.O=C(O)/C=C\C(=O)O [Ro 25-6981, (αR,βS)-α-(4-hydroxyphenyl)-β-methyl-4-(phenylmethyl)-1-piperidinepropanol maleate] | ~20 | marginally | no significant inhibition | no effect | full restoration of LTP levels | – | – |
| (α(2→8)Neu5Ac)12 [DP12] | – | – | no significant inhibition | no effect | full restoration of LTP levels | ~25 | ~90 |
